Results published in ChEMBL document CHEMBL1125006, “DNA-directed alkylating agents. 2. Synthesis and biological activity of platinum complexes linked to 9-anilinoacridine” (J Med Chem, 1990).
Activity calls are given as the source filed them. The calls are words filed in the database; no cut-off is given here.

What was measured:
P388 [1] = test: In vitro inhibition of P388 (murine leukemia) cell growth.; assay type: functional, cell-based, Mus musculus
P388 [2] = test: In vitro inhibition of Pt resistant P388 (murine leukemia) cell growth.; assay type: functional, cell-based, Mus musculus
P388 [3] = test: Increase in mean survival of P388 (murine leukemia) inoculated mice; no effect.; assay type: functional; details: Mus musculus
P388 [4] = test: Optimal i.p. dose in P388 (murine leukemia) inoculated mice.; assay type: functional, Mus musculus
P388 [5] = test: Increase in mean survival of P388 (murine leukemia) inoculated mice following optimal dose.; assay type: functional, organism-based; details: Mus musculus

Molecule	IC50 (P388 [1]; Mus musculus, P388)	IC50 (P388 [2]; Mus musculus, P388)	ILS (P388 [3])	OD (P388 [4])	further results
CISPLATIN [listing 1 of 2 here]	–	–	–	–	IC50 (P388 [1]; p388): 1200 nM; IC50 (P388 [2]; p388): 5500 nM
NCCNCCc1ccc(Nc2c3ccccc3nc3ccccc23)cc1	12500 nM	45000 nM	inactive	45 mg/kg	–
2-{3-[4-(Acridin-9-ylamino)-phenyl]-propyl}-propane-1,3-diammino-dichloroplatinum (II) (HCl) [listing 1 of 2 here]	–	–	inactive	–	OD (P388 [4]; Mus musculus): 20 mg/kg
DICHLORO(ETHYLENEDIAMINE) PLATINUM (II) [listing 1 of 2 here]	–	–	–	–	OD (P388 [4]; Mus musculus): 13.3 mg/kg; ILS (P388 [5]): 70%
Dichloro(1,3-propanediamine)platinum (II) [listing 1 of 2 here]	–	–	–	–	IC50 (P388 [1]; p388): 120 nM; IC50 (P388 [2]; p388): 380 nM
NCCNCCCc1ccc(Nc2c3ccccc3nc3ccccc23)cc1	3700 nM	700 nM	inactive	20 mg/kg	–
DICHLORO(ETHYLENEDIAMINE) PLATINUM (II) [listing 2 of 2 here]	–	–	–	–	IC50 (P388 [1]; p388): 300 nM; IC50 (P388 [2]; p388): 1030 nM
9-[4-(5-Amino-4-aminomethyl-pentyl)-phenylamino]-5-methoxy-acridine-4-carboxylic acid (2-dimethylamino-ethyl)-amide (2HCl) [listing 1 of 2 here]	–	–	–	–	IC50 (P388 [1]; p388): 1600 nM; IC50 (P388 [2]; p388): 1000 nM
CISPLATIN [listing 2 of 2 here]	–	–	–	–	OD (P388 [4]; Mus musculus): 5.3 mg/kg; ILS (P388 [5]): 120%
Dichloro(1,3-propanediamine)platinum (II) [listing 2 of 2 here]	–	–	–	–	OD (P388 [4]; Mus musculus): 8.9 mg/kg; ILS (P388 [5]): 31%
2-{4-[4-(Acridin-9-ylamino)-phenyl]-butyl}-propane-1,3-diammino-dichloroplatinum (II) (HCl) [listing 1 of 2 here]	–	–	inactive	–	OD (P388 [4]; Mus musculus): 30 mg/kg
9-[4-(5-Amino-4-aminomethyl-pentyl)-phenylamino]-5-methoxy-acridine-4-carboxylic acid (2-dimethylamino-ethyl)-amide (2HCl) [listing 2 of 2 here]	–	–	–	–	OD (P388 [4]; Mus musculus): 45 mg/kg; ILS (P388 [5]): 28%
N,1-{2-[4-(Acridin-9-ylamino)-phenyl]-ethyl}-ethane-1,2-diammino-dichloroplatinum (II) [listing 1 of 2 here]	–	–	–	–	IC50 (P388 [1]; p388): 2900 nM; IC50 (P388 [2]; p388): 2400 nM
2-{4-[4-(Acridin-9-ylamino)-phenyl]-butyl}-propane-1,3-diammino-dichloroplatinum (II) (HCl) [listing 2 of 2 here]	–	–	–	–	IC50 (P388 [1]; p388): 7200 nM; IC50 (P388 [2]; p388): 900 nM
N,1-{2-[4-(Acridin-9-ylamino)-phenyl]-ethyl}-ethane-1,2-diammino-dichloroplatinum (II) [listing 2 of 2 here]	–	–	inactive	–	OD (P388 [4]; Mus musculus): 13.3 mg/kg
2-{3-[4-(Acridin-9-ylamino)-phenyl]-propyl}-propane-1,3-diammino-dichloroplatinum (II) (HCl) [listing 2 of 2 here]	–	–	–	–	IC50 (P388 [1]; p388): 2900 nM; IC50 (P388 [2]; p388): 1900 nM
NCC(CN)CCCCCc1ccc(Nc2c3ccccc3nc3ccccc23)cc1	720 nM	690 nM	inactive	13.3 mg/kg	–
COc1cccc2c(Nc3ccc(CCCC(CN)CN)cc3)c3cccc(C(=O)NCCN(C)C)c3nc12	–	–	inactive	30 mg/kg	–

More lines, main results first:

IC50 (P388 [1]; Mus musculus, P388)	IC50 (P388 [2]; Mus musculus, P388)	Molecule	ILS (P388 [3])	OD (P388 [4])	further results
7300 nM	3000 nM	NCCNCCCCCc1ccc(Nc2c3ccccc3nc3ccccc23)cc1	inactive	20 mg/kg	–
7200 nM	700 nM	NCC(CN)Cc1ccc(Nc2c3ccccc3nc3ccccc23)cc1	inactive	45 mg/kg	–
120 nM	120 nM	NCC(CN)CCCc1ccc(Nc2c3ccccc3nc3ccccc23)cc1	inactive	30 mg/kg	–
7800 nM	1300 nM	NCCNCCCCc1ccc(Nc2c3ccccc3nc3ccccc23)cc1	inactive	65 mg/kg	–
310 nM	630 nM	NCC(CN)CCc1ccc(Nc2c3ccccc3nc3ccccc23)cc1	inactive	30 mg/kg	–
720 nM	680 nM	NCC(CN)CCCCc1ccc(Nc2c3ccccc3nc3ccccc23)cc1	inactive	20 mg/kg	–
